In US20060183773A1, “Uses of methylphenidate derivatives” (priority 2005, published 2006):

Columns and labels:
Type in all cases: cell-based, human
c-Jun = c-Jun in VEGF-treated HUVECs, TransAM AP-1 assay; conditions: for Mean OD 450 nm (c-Jun): control 0.204, VEGF only 0.261
Description: The flasks were incubated overnight at 37° C., 5% CO2 After this incubation, vascular endothelial growth factor (VEGF) (obtained from Sigma) was added to give a final concentration 10 ng/ml, and the flasks were incubated for an additional 30 minutes.
The amount of c-Jun was determined using a TransAM™ AP-1 Family Transcription Factor Assay Kit and a Nuclear Extract Kit from Active Motif North America, Carlsbad, Calif., according to manufacturer's instructions. Briefly, a nuclear extract of the cells was prepared using the Nuclear Extract Kit. Then, the nuclear extract was added to the wells of a 96-well plate in which oligonucleotide containing a TPA-responsive element (TRE) was immobilized. Activator protein-1 (AP-1) dimers contained in the nuclear extract were bound to this oligonucleotide and were detected using an antibody specific for c-Jun. A secondary antibody conjugated to horseradish peroxidase (HRP) was next added to provide a colorimetric readout that was quantified by spectrophotometry (measurement at 450 nm).

IL-13 = IL-13 release by PBL, ELISA; conditions: Dex 10 μM; for IL-13 release induced by PHA: donor GR467, 2 μg/ml PHA, 96 h, Cpd II 15 μg/ml, MP 15 μg/ml, FIG. 3
Description: (§1) After this incubation, PHA was added to give a final concentration of 2 μg/ml, and the cells were incubated for an additional 96 hours at 37° C., 5% CO2. All cultures were performed in triplicate. Cells were then removed by centrifugation at 1000 rpm for 10 minutes, and the culture medium collected.
(§2) Release of IL-13 and interferon gamma (IFNγ) into the culture medium was measured by ELISA. To perform the ELISA, matched pairs of antibodies against human IL-13 and IFNγ were purchased from Pierce Biotechnology and Biosource, respectively. ELISA strip well plates were coated with 10 μg/ml of antibody (in phosphate-buffered saline (PBS)) to IL-13 and 4 μg/ml of antibody to IFNγ (in PBS) overnight at room temperature. The plates were then blocked using a 4% BSA solution in PBS for one hour, followed by the addition of 50 μl of experimental culture medium per well in duplicate. The plates were incubated at room temperature for one hour and then washed using 50 mM Tris pH 8.0 with 0.1% Tween 20. Then, solutions of 400 ng/ml biotinylated second antibody to IL-13 and 500 ng/ml biotinylated second antibody to IFNγ were made in blocking buffer, and 100 μl were added per well. The plates were incubated for 1 hour and washed again. A 1:8000 dilution of Strepavidin HRP (Pierce Biotechnology) conjugate was made in blocking buffer, and 100 μl were added to the wells and incubation continued for 30 minutes. A final wash step was performed, after which 100 μl Pierce Biotechnology TMB substrate were added to each well. Color was developed for 30 minutes and stopped by adding 100 μl 0.18 N H2SO4. OD was determined using microplate reader with a 450 nm filter.
After this incubation, PHA was added to give a final concentration of 5 μg/ml, and the cells were incubated for an additional 72 hours at 37° C., 5% CO2. All cultures were performed in triplicate. Cells were then removed by centrifugation at 1000 rpm for 10 minutes.
The supernatants were collected, and the concentrations of IL-13 and tumor necrosis factor alpha (TNFα) in the supernatants were measured by ELISA. […]

IFNγ = IFNγ release by PBL, ELISA; conditions: donor GR467, Cpd II 15 μg/ml, MP 15 μg/ml, Dex 10 μM, FIG. 4; for IFNγ release, cells stimulated with PHA: 2 μg/ml PHA, 96 h; for IFNγ release, unstimulated cells: no PHA
Description: as §1, §2

IL-8 = IL-8 release by TNFα-stimulated HUVECs, ELISA; conditions: for Mean IL-8: 18 hours, TNFα + water 35572; for IL-8 release stimulated by TNFα (in words): HUVECs, Cpd II 1-30 μg/ml, MP 15 μg/ml, Dex and LY 294002 10 μM
Description: Passage 4 HUVECs, human source lot number 8710 (obtained from ATCC), were put into the wells of a 24-well tissue culture plate at 5,000 cells/well in EGM-2 medium (obtained from Cambrex) and cultured for 72 hours at 37° C. and 5% CO2. […] After incubation for 1 hour at 37° C. and 5% CO2, TNFα (obtained from Pierce) was added to give a final concentration of 10 ng/ml, and the cells were incubated for an additional 18 hours at 37° C. and 5% CO2. After this incubation, the supernatants were collected, and the amount of IL-8 in the supernatants determined by ELISA as described in Example 4.

NFκB = assay: Activated NFκB in VEGF-treated HUVECs, TransAM assay; conditions: for Mean OD 450 nm (NFκB): control 0.070, VEGF only 0.111
Description: Passage 5 HUVECs, human source lot number 8750 (obtained from ATCC), were grown to confluence in 25 cm^2 flasks in EGM-2 medium. The following additives were added to the flasks (total volume of 5 ml/flask) in EGM-2 medium containing 2% FCS, GA1000 (gentamycin), heparin and ascorbic acid (all from Cambrex): 1 μg/ml of the compound of formula II (Cpd II); 5 μg/ml Cpd II; 15 μg/ml of Cpd II; 15 μg/ml methylphenidate (MP); or 10 μM LY 294002. The flasks were incubated overnight at 37° C., 5% CO2 After this incubation, vascular endothelial growth factor (VEGF) (obtained from Sigma) was added to give a final concentration 10 ng/ml, and the flasks were incubated for an additional 30 minutes.
Then, the amount of NFκB was determined using a TransAM™ NFκB p65/NFκB p50 Transcription Factor Assay Kit and a Nuclear Extract Kit from Active Motif North America, Carlsbad, Calif., according to the manufacturer's instructions. Briefly, a nuclear extract of the cells was prepared using the Nuclear Extract Kit. Then, the nuclear extract was added to the wells of the 96-well plate of the TransAM™ kit. Oligonucleotide containing an NFκB consensus binding site was immobilized in the wells, and the activated NFκB contained in the nuclear extract was bound to the oligonucleotide. Then, an antibody directed against the NFκB p65 or p50 subunit was added, and the NFκB complex bound to the oligonucleotide was detected. A secondary antibody conjugated to horseradish peroxidase (HRP) was next added to provide a colorimetric readout that was quantified by spectrophotometry (measurement at 450 nm).

## COC(=O)C(c1ccccc1)C1CCCCN1 (stereo not shown) [methylphenidate]
c-Jun; VEGF 10 ng/ml + 15 μg/ml
  Mean OD 450 nm (c-Jun): 0.230 ± 0.016
IL-13
  IL-13 release induced by PHA: increased the release of IL-13 by the PHA-stimulated cells
IFNγ
  IFNγ release, cells stimulated with PHA: increased the release of IFNγ by the PHA-stimulated cells
  IFNγ release, unstimulated cells: had some effect on the release of IFNγ by unstimulated cells
IL-8; 10 ng/ml TNFα + 15 μg/ml
  Mean IL-8: 30183 ± 3448.01 pg/mL
IL-8
  IL-8 release stimulated by TNFα (in words): slightly decreased IL-8 release
NFκB; VEGF 10 ng/ml + 15 μg/ml
  Mean OD 450 nm (NFκB): 0.093 ± 0.011

## COC(=O)C(c1ccc(-c2ccccc2)cc1)C1CCCCN1 (stereo not shown) [Cpd II]
c-Jun; VEGF 10 ng/ml + 1 μg/ml
  Mean OD 450 nm (c-Jun): 0.221 ± 0.008
c-Jun; VEGF 10 ng/ml + 5 μg/ml
  Mean OD 450 nm (c-Jun): 0.185 ± 0.025
c-Jun; VEGF 10 ng/ml + 15 μg/ml
  Mean OD 450 nm (c-Jun): 0.204 ± 0.010
c-Jun; VEGF, 15 μg/ml and 5 μg/ml
  amount of c-Jun (in words): completely eliminated the increase in the amount of c-Jun
IL-13; donor GR191, 5 μg/ml PHA, 72 h, Cpd II 15 and 50 μg/ml, FIG. 6
  release of IL-13 from PHA-stimulated PBL: significantly inhibited the release of IL-13
IL-13
  IL-13 release induced by PHA: significantly inhibited IL-13 release induced by PHA
IFNγ
  IFNγ release, cells stimulated with PHA: significantly inhibited IFNγ release
  IFNγ release, unstimulated cells: significantly inhibited IFNγ release
IL-8; 10 ng/ml TNFα + 1 μg/ml
  Mean IL-8: 53657 ± 3935.18 pg/mL
IL-8; 10 ng/ml TNFα + 5 μg/ml
  Mean IL-8: 34482 ± 2127.22 pg/mL
IL-8; 10 ng/ml TNFα + 10 μg/ml
  Mean IL-8: 22050 ± 727.27 pg/mL
IL-8; 10 ng/ml TNFα + 15 μg/ml
  Mean IL-8: 20817 ± 674.63 pg/mL
IL-8; 10 ng/ml TNFα + 30 μg/ml
  Mean IL-8: 4829.8 ± 214.13 pg/mL
IL-8
  IL-8 release stimulated by TNFα (in words): decreased IL-8 release stimulated by TNFα in a dose-dependent manner
NFκB; VEGF 10 ng/ml + 1 μg/ml
  Mean OD 450 nm (NFκB): 0.097 ± 0.013
NFκB; VEGF 10 ng/ml + 5 μg/ml
  Mean OD 450 nm (NFκB): 0.065 ± 0.010
NFκB; VEGF 10 ng/ml + 15 μg/ml
  Mean OD 450 nm (NFκB): 0.060 ± 0.008
NFκB; VEGF, 15 μg/ml and 5 μg/ml
  amount of activated NFκB (in words): reduced the amount of activated NFκB back to basal levels
